{
  "source": "patent US20250339462A1",
  "about": "“CANCER TREATMENT USING ULTRA-HIGH CONCENTRATION GASEOUS NITRIC OXIDE AND A CHECKPOINT INHIBITOR” (Beyond Air, Inc., priority 2022, published 2025)",
  "key": {"4T1 tumor-bearing mice [1]": {"tested_on": "4T1 tumor-bearing mice", "test": "4T1 breast cancer model, UNO/Anti-PD-1 Repeated Dose Study", "type": "in vivo, mouse", "procedure": "(§1) Preparation of 4T1 cells: Cancer cell suspension, in Hanks' Balanced Salt Solution (HBSS) (Biological Industries, Israel), at a concentration of 5.0×10^6 cells/ml was freshly prepared on the day of the cancer model induction. Cells were grown to a 70-80% confluency and harvested using trypsin. The cells were centrifuged at 1,200 revolutions per minute (rpm)—241 G for 8 minutes, then the pellet was re-suspended in 1 ml of HBSS. The cells were counted using an automated cell counter and a suspension with a concentration of 5.0×10^6 cells/ml was prepared. Cell viability must be above 90% before cell inoculation to the mice, otherwise new cells will need to be prepared. At the point of inoculation, cells will be at passage 8 at most. The cell suspension was then aspirated into a 1 ml syringe with a 27 G needle, for subcutaneous (s.c.) injection. All injection volume was used and was not re-introduced into the stock solution.\nInoculation of 4T1 cancer cells to mice—Cancer cell suspension at a concentration of 5.0×10^6 cells/ml was inoculated to the right flank of animals at a volume of 100 μl per mouse. Female Balb/c mice were inoculated with 100 μl of 5.0×10^6 4T1 cells/ml. Administration was performed as soon as possible following cell preparation and after manual shaking prior to withdrawal of cell suspension. Injections were performed using a 1 ml syringe and a 27 G needle where withdrawal is done without the needle.\nUNO and N2 treatment—On the day of treatment, mice were anesthetized by an intraperitoneal (i.p.) injection of 100 mg/kg of ketamine and 10 mg/kg of xylazine hydrochloride solution. Tumor-bearing mice were treated with either N2 or UNO at 50,000 ppm or 100,000 ppm. UNO at 50,000 ppm was administered intratumorally by a 23 G needle for 10 minutes, at 0.2 LPM and 2 bar exit pressure. UNO at 100,000 ppm was administered intratumorally by a 23 G needle for 2 minutes, at 0.2 LPM and 2 bar exit pressure. After treatment, all mice were warmed and closely monitored until complete recovery was observed.\nInjection of anti-PD-1—Anti-PD-1 was administered 5 times intraperitoneally (i.p.) at a dose of 10 mg/kg, i.p., using a 1 ml syringe with a 27 G needle. The injection was administered to approximately the same location each time.\nUNO/Anti-PD-1 Repeated Dose Study—Balb/c mice (96) were inoculated with mouse breast cancer carcinoma (4T1) cells injected subcutaneously (s.c.) to the right flank. When the average tumor volume reached 50-150 mm^3, mice assigned to gas treatment groups were treated with 5% UNO (50,000 ppm), stabilized in N2, injected intratumorally (i.t.) for 10 minutes at a flow rate of 0.2 liters per minute (LPM) or with N2 injected intratumorally (i.t.) for 10 minutes at a flow rate of 0.2 LPM as a control. The mice were administered the gas treatment, e.g., UNO or N2, twice, on day 9 post-tumor cells inoculation and, 5 days later, on day 14 post-tumor inoculation. Mice assigned to the combination treatment group (i.e., gas+anti-mPD-1) were administered anti-mPD-1 injections starting from the day of first gas treatment and administered every three days thereafter, with a final dose of anti-mPD-1 injected 12 days after the first gas treatment.\nPrimary tumor volume progression was monitored twice a week by measuring the tumor using a digital caliper calculated as: […]\nwhere Diameter 1 is length, Diameter 2 is width, and Diameter 3 is height.\nMice receiving two UNO treatments were divided into two groups: in the first group, the primary tumors were surgically removed 15 days after the first UNO treatment, while, in the second group, the tumors were not resected. Mice survival was evaluated. Mice that reached a tumor volume of ≥1500 mm^3 and/or a score of 12 were humanely euthanized, and the time of death was recorded. Metastases development was evaluated postmortem."}, "4T1 tumor-bearing mice [2]": {"tested_on": "4T1 tumor-bearing mice", "test": "4T1 breast cancer model, UNO/Anti-PD-1 Single Dose Study", "type": "in vivo, mouse", "settings": "single-dose of UNO alone 50,000 ppm 10 min (FIG. 12A)", "procedure": "as §1, with “At the point of inoculation, cells will be at passage 8 at most. The cell suspension was then aspirated into a 1 ml syringe with a 27 G needle, for subcutaneous (s.c.) injection. All injection volume was used and was not re-introduced into the stock solution.” left out\nUNO and N2 treatment—On the day of treatment, mice were anesthetized by an intraperitoneal (i.p.) injection of 100 mg/kg of ketamine and 10 mg/kg of xylazine hydrochloride solution. […] After treatment, all mice were warmed and closely monitored until complete recovery was observed. […]\nAnti-mPD-1 dosing started one day after UNO treatment. […] The primary tumor volume was assessed using a digital caliper using a standard formula. In addition, mice survival was evaluated. Mice were routinely weighed and monitored for health conditions using mouse distress scoring. Mice reaching a tumor volume of ≥1500 mm3 and/or a score of 12 were humanely euthanized, and the time of death was recorded."}, "[3]": {"settings": "with primary tumor resection (FIG. 13B), Cox model"}},
  "data": [
    {"smiles": "[N]=O", "note": "[UNO, nitric oxide]", "values": [
      {"measurement": "Primary tumor size vs untreated or only anti-mPD-1", "setting": "4T1 tumor-bearing mice [1]; repeated UNO dosing 50,000 ppm 10 min twice, 14 days after first UNO treatment (FIG. 12B)", "value": "significantly smaller"},
      {"measurement": "Survival (Kaplan-Meier) vs anti-mPD-1 alone, untreated or N2 controls", "setting": "4T1 tumor-bearing mice [1]; repeated doses of UNO", "value": "tendency toward prolonged survival"},
      {"measurement": "Tumors smaller compared to anti-mPD-1 alone group", "setting": "4T1 tumor-bearing mice [1]; repeated doses of UNO without anti-mPD-1, 14 days after first UNO treatment", "value": 21.0, "unit": "%"},
      {"measurement": "Survival hazard ratio vs anti-mPD-1", "setting": "4T1 tumor-bearing mice [1]; [3]", "value": 1.58},
      {"measurement": "Survival hazard ratio vs untreated", "setting": "4T1 tumor-bearing mice [1]; [3]", "value": 0.69},
      {"measurement": "Survival hazard ratio vs untreated", "setting": "4T1 tumor-bearing mice [1]; without resection of primary tumor (FIG. 13A), Cox model", "value": 0.63},
      {"measurement": "Primary tumors smaller compared to anti-mPD-1 alone", "setting": "4T1 tumor-bearing mice [2]", "value": 13.2, "unit": "%"}
    ]}
  ]
}
